Laboratory results as given in patent US12053513B2, “Cancer-specific T-cell receptors” (UNIVERSITY COLLEGE CARDIFF CONSULTANTS LTD., priority 2018, dated 2024).

Key:
Assay type in all cases: cell-based, human
[1] = system: CD8 T-cells from a renal cell carcinoma (RCC) and chronic lymphocytic leukaemia (CLL) patient; assay: Priming of CD8 T-cells from RCC and CLL patients, TAPI-0 assay or tetramer staining; conditions: primed 28 days
From the text: (§1) (FIG. 14A) CD8 T-cells from a renal cell carcinoma (RCC) and chronic lymphocytic leukaemia (CLL) patient were left unprimed or primed with […] (SEQ ID NO: 80) peptide for 28 days. […] (SEQ ID NO: 80) peptide for 28 days.

CLL cells = assay: Killing assay with primed T-cells from CLL patient 3; conditions: compared to IMP-2 primed CD8s
From the text: as §1

[2] = system: CD8+ T-cells from HLA A2+ healthy donors; assay: Priming of CD8+ T-cells from healthy donors, tetramer staining; conditions: three healthy donors, tetramers, compared to WT peptides
Description: To generate T-cell peptide lines, CD8 T-cells were purified from the PBMCs of HLA A2+ donors using CD8 microbeads according to the manufacturer's instructions (Miltenyi Biotech, Bergisch Gladbach, Germany). Purified CD8 cells (3×10^6) were co-incubated with autologous CD8neg cells (6-8×10^6) in 24 well plates in 2 mL of T-cell media, but with no IL-15. 25 μM of each peptide was used. The cultures had 50% of the media changed thrice weekly. Tetramer staining was performed as above, using 500,000 cells per tube. Each T-cell line was used in an IFNγ enzyme linked immunosorbent spot (ELISpot) assay with cell lines MDA-MB-231, melanoma MM909.24 and Saos-2. 50,000 T-cells and 15,000 cancer cells were used per well. Incubation was performed for 48 h, and the assay developed according the manufacturer's instructions (Mabtech, Nacka Strand, Sweden).
CPL assay of CR24 was performed as described above. Candidate peptide agonists were designed using the CR24 CPL and an online algorithm (wsb.warwick.ac.uk/wsbcToolsWebpage/user_cases.php). Priming of CD8 T-cells from healthy donors, tetramer staining and chromium release cytotoxicity assays were performed as described above.

[3] = system: CD8 T-cells from an acute myeloid leukaemia (AML) patient and two CLL patients; assay: Priming of CD8 T-cells from AML and CLL patients, IMP-2 tetramer; conditions: primed 28 days, versus unprimed
[4] = system: autologous melanoma cells; assay: Chromium release cytotoxicity assay of peptide primed T-cell lines; conditions: patient 37; compared to WT Melan A peptide primed T-cells
autologous cancer cells = assay: Killing of autologous cancer cells by primed CD8s (RCC and CLL patient); conditions: compared to unprimed T-cells
From the text: as §1

Row | Sequence | MTSAIGILPV specific T-cells after priming [1] | killing of CLL cells by primed T-cells (CLL cells) | priming of Melan A, BST2 and IMP2 T-cells [2] | priming of Melan A, BST2 and IMP2 T-cells ([2]; listed as MTSAIGVLVP) | proportion of IMP-2 specific T-cells after priming [3] | lysis of autologous melanoma cells by primed T-cells [4] | killing of autologous cancer cells by primed CD8s (autologous cancer cells)
1 | MTSAIGILPV (listed as Homo sapiens) [APL 5] | presence | killed more CLL cells than the IMP-2 primed CD8s | most effective super-agonist | most effective of the candidate super-agonists at priming | induced a greater proportion of IMP-2 cells | superior lysis | killed more autologous cancer cells than the unprimed T-cells
2 | ITSAIGILPV (listed as Homo sapiens) [APL 2] | – | – | exhibiting effect across each donor | – | – | – | –
